Legend:
hLAT1 = molecular target: T1, hLAT1 (Homo sapiens, UniProt Q01650); assay: Substrate transport inhibition, [3H]-gabapentin uptake in LLC-PK1 cells expressing hLAT1; type: cell-based
T1 construct: host or cells: LLC-PK1 (tetracycline-inducible, Invitrogen Gateway pT-REx System)
Description: (§1) Substrate transport inhibition studies were conducted with LLC-PK1 cells inducibly expressing either hLAT1 or hLAT2. Cells were plated in growth media with 1 μg/mL doxycycline at 30,000 cells/well in 96-well plates. Sixteen hours after plating, cells were treated with butyrate at a final concentration of 5 mM. The following day, cells were washed with PBS and incubated in the presence or absence of various concentrations of QBS10072S with 30,000 cpm/well of either [3H]-gabapentin (LAT1) or [3H]-leucine (LAT2) in PBS for 15 minutes at room temperature. The non-specific cell-bound activity was determined by the addition of 5 mM unlabeled gabapentin (LAT1) or leucine (LAT2). Unincorporated radioactivity was removed, and cells were washed three times with ice-cold PBS. Cells were lysed by adding scintillation fluid to each well, and cell-associated radioactivity was determined via scintillation counting using a multichannel 96-well plate reader (MicroBeta Trilux, Perkin Elmer, Waltham, MA). Data were expressed as the percent of specific radioactivity uptake in wells with no compound added. LC50s were determined by non-linear curve-fitting using GraphPad Prism (San Diego, CA).

hLAT2 = molecular target: T2, hLAT2 (Homo sapiens, UniProt Q9UHI5); assay: Substrate transport inhibition, [3H]-leucine uptake in LLC-PK1 cells expressing hLAT2; type: cell-based
T2 construct: host or cells: LLC-PK1 (tetracycline-inducible, Invitrogen Gateway pT-REx System)
T2 sequence (Q9UHI5 1-535): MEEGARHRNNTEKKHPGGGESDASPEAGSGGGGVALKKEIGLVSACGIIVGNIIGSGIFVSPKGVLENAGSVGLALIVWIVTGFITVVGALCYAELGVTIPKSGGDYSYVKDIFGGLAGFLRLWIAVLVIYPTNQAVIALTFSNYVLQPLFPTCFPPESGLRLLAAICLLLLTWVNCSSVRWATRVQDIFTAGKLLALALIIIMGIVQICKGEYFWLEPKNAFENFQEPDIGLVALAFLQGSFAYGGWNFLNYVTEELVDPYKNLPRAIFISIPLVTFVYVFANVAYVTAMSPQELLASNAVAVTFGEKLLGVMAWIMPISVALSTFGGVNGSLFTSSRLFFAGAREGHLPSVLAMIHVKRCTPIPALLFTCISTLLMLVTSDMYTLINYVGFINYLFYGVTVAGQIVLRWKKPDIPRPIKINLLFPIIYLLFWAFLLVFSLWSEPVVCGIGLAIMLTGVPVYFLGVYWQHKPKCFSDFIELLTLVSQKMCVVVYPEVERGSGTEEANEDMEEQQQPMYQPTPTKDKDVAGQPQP
T2 sequence (P08195 1-529 partner): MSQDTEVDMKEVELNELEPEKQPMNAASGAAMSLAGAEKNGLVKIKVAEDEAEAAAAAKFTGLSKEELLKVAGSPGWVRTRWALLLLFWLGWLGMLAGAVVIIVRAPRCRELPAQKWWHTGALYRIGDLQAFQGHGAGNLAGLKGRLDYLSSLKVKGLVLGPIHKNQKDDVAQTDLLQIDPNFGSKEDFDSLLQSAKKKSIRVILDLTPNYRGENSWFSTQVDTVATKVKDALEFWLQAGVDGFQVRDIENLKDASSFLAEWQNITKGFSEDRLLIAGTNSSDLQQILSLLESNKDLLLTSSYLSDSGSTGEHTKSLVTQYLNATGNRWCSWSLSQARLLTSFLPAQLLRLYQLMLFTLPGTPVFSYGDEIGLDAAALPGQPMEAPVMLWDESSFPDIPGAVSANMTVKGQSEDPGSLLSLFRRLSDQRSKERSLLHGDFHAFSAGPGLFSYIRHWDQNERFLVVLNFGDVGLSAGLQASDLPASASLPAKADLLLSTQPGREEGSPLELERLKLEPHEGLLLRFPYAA
Description: as §1

[1] = Cytotoxicity in normal human astrocytes (CellTiter-Glo); type: cell-based; details: normal human astrocytes (NHA), read-out: LC50
Description: In vitro activity of QBS10072S was assessed using a modified clonogenic cell viability assay in 96-well clear-bottom plates. […] For GBM cell lines, 2000 cells/well were plated. On day 2 (GBM) or day 3 (LLC-PK1) after original plating, cells were washed twice with PBS and incubated with 50 μL of various concentrations of QBS10072S in PBS in at least quadruplicate. After 30 minutes at 37°C, 200 μL of growth medium was added to each well. Clonal populations were allowed to grow until the control wells (mock treatment) were near confluence (7 to 10 days). At this point, 170 μL media were removed and 60 μL CellTiter-Glo® (Promega, Madison, WI) were added to each well. Plates were placed on an orbital shaker for three minutes to lyse the cells and then incubated for an additional 10 minutes at RT to stabilize the luminescent signal. Luminescence was recorded using an EnSpire® Multimode Plate Reader (Perkin Elmer). Background (luminescence from wells incubated with 100 μM melphalan or lomustine) was subtracted and data were normalized to the control. EC50s were determined by non-linear regression using GraphPad Prism.
Cells were incubated with a titration of QBS10072S or melphalan and cell viability was measured by CellTiter-Glo. LC50 values for each compound were determined.

U87 cells = assay: WST1 cell viability assay, U87; type: cell-based; details: Homo sapiens, U-87 MG; U87; QBS10072S 1 hour in PBS, TMZ 2 days, read day 7; read-out: LC50 (μM ± SD)
Description: (§2) In vitro activities of QBS10072S and temozolomide (TMZ) in U87 and U87-MGMT cells were assessed using the WST1 cell viability assay in 96-well plates in which 500/well of cells were plated in sextuplets for each condition. To avoid cell loss, the following washing and medium removing procedures were all done using a P200 pipet without vacuum aspiration. For QBS10072S treatment, cells were washed with PBS the next day and incubated with 50 μL of various concentrations of QBS10072S in PBS for 1 hour at 37°C. After incubation, 150 μL of growth medium was added to each well. The medium was subsequently changed every two days until day 7. For TMZ treatment, cells were treated with 100 μL of various concentrations of TMZ in a growth medium for 2 days. After incubation, cells were put back in a normal growth medium and continued culturing for five days. In the end, 10 μL of WST1 reagent was added to each well and incubated at 37°C for 4h before subjecting to plate reading at 450 nm and 690nm using an EnSpire multimode plate reader (PerkinElmer). Background (OD690nm) was subtracted and data were normalized to the control. LC50s were determined by non-linear regression using GraphPad Prism (GraphPad Software Inc., San Diego, California)

U87-MGMT cells = assay: WST1 cell viability assay, U87-MGMT; type: cell-based; details: Homo sapiens; U87-MGMT; QBS10072S 1 hour in PBS, TMZ 2 days, read day 7; read-out: LC50 (μM ± SD)
Description: as §2

[2] = system: U251 intracerebral human GBM xenograft; assay: U251 intracerebral human GBM xenograft in athymic mice (BLI, survival); type: in vivo, mouse; details: temozolomide 4 mg/kg oral gavage daily for 5 days plus RT 1.5 Gy daily for 5 days; vehicle 35
Description: Five-week-old female athymic mice (nu/nu, homozygous: Simonsen Laboratories, Gilroy, CA), housed under aseptic conditions, received intracranial tumor cell injection as previously described and as approved by the University of California San Francisco Institutional Animal Care and Use Committee, Protocol #: AN111064-03. Briefly, mice were anesthetized by intraperitoneal injection of ketamine (100 mg/kg) and xylazine (10 mg/kg) and injected with 3 μL of tumor cell suspension (300,000 cells total) into the right caudate-putamen. Coordinates: 3 mm to the right from bregma, on top of the coronal suture, and 3.5 mm depth. Injection rate: ~30 second/uL. For treatment studies, eight mice were used for each group for LN229 studies and nine mice per group for U251 studies. Treatments began when tumors entered the log-phase of growth as measured by luminescence, for the LN229 experiment on Day 21 and for U251 experiments on Day 14.
Dosing levels and frequency are described in the figure legends.
For bioluminescence imaging (BLI), mice were anesthetized as above, then administered 150 mg/kg of luciferin (D-luciferin potassium salt, Gold Biotechnology, St. Louis, MO) via intraperitoneal injection. Ten minutes after luciferin injection, mice were examined for tumor bioluminescence with an IVIS Lumina imaging station and Living Image software (Caliper Life Sciences, Alameda, CA), and regions of interest were recorded as photons per second per steradian per square cm.
Mice were anesthetized via inhalation of 2.5% isoflurane with 1 L of oxygen per minute for five minutes prior to being positioned on an irradiation platform located 16.3 cm from a cesium-137 source (JL Shepherd & Associates, San Fernando, CA). Eyes, respiratory tracts, and bodies were protected with lead shielding. Mice received whole-brain irradiation at a dose rate of 247 cGy/min until 1.5 Gy radiation had been administered. After irradiation, animals were monitored until recovery. Mice were irradiated once daily for five consecutive days. All mice received the first radiation dose when tumors were in a log-phase growth (Day 14) as determined by BLI.
Tumor-bearing mice were treated with temozolomide (TMZ) 4 mg/kg via oral gavage, starting on day 14 post U251 cell injection once daily for five days - concurrent therapy with RT. TMZ was obtained from the UCSF hospital pharmacy and formulated with the Ora-Plus suspending vehicle (Perrigo, Dublin, Ireland) with a working concentration of 1 mg/mL.

T1 sequence (Q01650 whole entry, one chain of several): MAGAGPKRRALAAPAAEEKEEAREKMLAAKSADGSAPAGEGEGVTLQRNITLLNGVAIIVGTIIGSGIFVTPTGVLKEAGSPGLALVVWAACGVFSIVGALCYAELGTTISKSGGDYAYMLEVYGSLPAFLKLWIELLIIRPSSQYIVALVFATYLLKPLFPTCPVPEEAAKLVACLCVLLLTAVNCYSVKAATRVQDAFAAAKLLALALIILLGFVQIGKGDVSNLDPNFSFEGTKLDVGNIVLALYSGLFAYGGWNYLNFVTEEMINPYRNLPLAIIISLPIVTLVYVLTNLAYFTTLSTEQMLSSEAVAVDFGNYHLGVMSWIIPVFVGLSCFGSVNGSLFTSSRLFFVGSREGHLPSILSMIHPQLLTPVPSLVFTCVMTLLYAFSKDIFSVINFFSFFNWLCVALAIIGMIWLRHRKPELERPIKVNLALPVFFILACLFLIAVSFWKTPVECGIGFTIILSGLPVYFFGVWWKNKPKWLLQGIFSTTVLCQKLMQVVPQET

Compound | IC50 (hLAT1) | IC50 (hLAT2) | CC50 at 30 min [1] | CC50 (U87 cells) | CC50 (U87-MGMT cells) | median survival time [2]
N[C@@H](Cc1ccc(N(CCCl)CCCl)cc1)C(=O)O [Melphalan, melphalan, reference compound] | 170 µM | 390 µM | 0.86 µM | – | – | –
Cn1nnc2c(C(N)=O)ncn2c1=O [TMZ, temozolomide, reference compound] | – | – | – | 82.3 ± 10.5 µM | > 200 µM | 48 days

Reference: PMC8482806, “A Novel Blood-Brain Barrier-Permeable Chemotherapeutic Agent for the Treatment of Glioblastoma” (Cureus, 2021)
